PMC4368888, “Preclinical to Clinical Translation of CNS Transporter Occupancy of TD-9855, a Novel Norepinephrine and Serotonin Reuptake Inhibitor” (International Journal of Neuropsychopharmacology, 2015)
“And” between values parts separate entries of the source, which are not always exact repeats. Identical values can stand only once.

How the values were obtained:
SERT [1] = molecular target: T1, SERT (Rattus norvegicus, UniProt P31652); assay: Ex vivo SERT occupancy in rat spinal cord with PK/PD modeling; details: estimate (% CV)
T1 construct: from tissue; host or cells: rat lumbar spinal cord after oral dosing
T1 sequence (P31652 whole entry): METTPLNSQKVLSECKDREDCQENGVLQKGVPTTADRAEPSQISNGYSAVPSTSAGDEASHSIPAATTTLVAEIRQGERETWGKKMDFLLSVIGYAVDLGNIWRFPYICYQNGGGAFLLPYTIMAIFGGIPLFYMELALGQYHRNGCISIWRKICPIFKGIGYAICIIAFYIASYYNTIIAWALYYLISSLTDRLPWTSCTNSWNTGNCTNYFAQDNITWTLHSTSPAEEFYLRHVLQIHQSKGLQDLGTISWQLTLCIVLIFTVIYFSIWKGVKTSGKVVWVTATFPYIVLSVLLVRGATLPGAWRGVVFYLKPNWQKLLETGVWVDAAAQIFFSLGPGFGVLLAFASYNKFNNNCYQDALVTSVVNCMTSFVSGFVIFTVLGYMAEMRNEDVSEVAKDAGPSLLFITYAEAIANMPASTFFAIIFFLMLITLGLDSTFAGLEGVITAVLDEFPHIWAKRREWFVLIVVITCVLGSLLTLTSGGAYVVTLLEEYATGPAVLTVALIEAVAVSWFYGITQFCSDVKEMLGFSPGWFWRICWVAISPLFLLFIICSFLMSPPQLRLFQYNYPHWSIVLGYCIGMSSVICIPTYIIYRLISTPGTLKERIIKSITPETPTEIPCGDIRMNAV
Description: TD-9855 Rat Administration and Sampling — Rats (n = 6/timepoint/dose level) received a single oral dose of TD-9855 (0.3, 1, 5, 10, 30, and 60mg/kg) and were euthanized by decapitation at specified time points (0.5, 2, 4, 6, and 8hr for 5mg/kg dose level; 2hr for 0.3, 1, 10, 30, and 60mg/kg dose levels) post-administration. Spinal cords were dissected for ex vivo transporter occupancy and PK assessments from the same animals. The spinal cord was harvested by hydraulic extrusion using phosphate-buffered saline, and the lumbar segment dissected and frozen on dry ice. The remaining spinal cord segments were collected and homogenized in water (25% w/w) for PK analysis. All samples were stored at -80 °C until analysis.
A kinetic radioligand binding assay was used to determine NET and SERT occupancy in rat spinal cord, as described previously ([Bourdet et al., 2012]).
Rat PK/PD Modeling — PK/PD parameters were estimated by a compartmental modeling approach (WinNonlin Version 5.0.1, Pharsight Corporation). One- and two-compartment PK models with first-order absorption and elimination were evaluated. The one-compartment model was selected. The pharmacodynamic model was an effect compartment Emax model linked directly to the central PK compartment (WinNonlin PK Model 3, PD Model 101). Selection of models was based upon best fit in terms of visual inspection, Akaike Information Criteria, and weighted residual sum of squares using the Gauss-Newton minimization method. The following parameters were estimated:
Emax (% occupancy): Maximal SERT or NET occupancy in spinal cord
keo (hr^-1): First-order equilibration rate constant between the central pharmacokinetic compartment and the pharmacodynamic effect compartment

SERT [2] = molecular target: SERT (Homo sapiens, UniProt P31645); assay: Human PET SERT occupancy with [11C]-DASB; assay type: in vivo; parameters: from tissue; host or cells: brain of healthy male volunteers, in vivo PET
SERT (Homo sapiens, UniProt P31645), sequence (P31645 whole entry): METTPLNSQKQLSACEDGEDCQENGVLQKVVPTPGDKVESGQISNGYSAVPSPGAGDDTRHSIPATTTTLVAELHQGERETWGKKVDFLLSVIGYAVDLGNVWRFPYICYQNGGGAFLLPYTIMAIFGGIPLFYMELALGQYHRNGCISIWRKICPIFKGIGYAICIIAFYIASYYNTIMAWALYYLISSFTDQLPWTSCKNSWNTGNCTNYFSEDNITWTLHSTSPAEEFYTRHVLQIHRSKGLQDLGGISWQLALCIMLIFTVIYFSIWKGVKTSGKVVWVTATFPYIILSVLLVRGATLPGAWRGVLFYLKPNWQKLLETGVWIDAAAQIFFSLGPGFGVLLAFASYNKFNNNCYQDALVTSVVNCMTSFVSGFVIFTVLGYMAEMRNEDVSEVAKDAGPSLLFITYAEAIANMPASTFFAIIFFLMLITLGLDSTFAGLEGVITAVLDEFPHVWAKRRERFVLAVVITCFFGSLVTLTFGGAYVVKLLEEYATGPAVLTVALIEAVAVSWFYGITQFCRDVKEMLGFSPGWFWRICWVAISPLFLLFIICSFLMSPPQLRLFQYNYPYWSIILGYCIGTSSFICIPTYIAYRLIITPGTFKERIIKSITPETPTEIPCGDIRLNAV
Description: This was a Phase 1, open-label, single-dose study in healthy male volunteers to evaluate NET and SERT occupancy in the human brain after oral administration of TD-9855 using PET.
The study was conducted at the Yale PET Center in accordance with the principles of the International Conference on Harmonisation’s Technical Requirements for Registration of Pharmaceuticals for Human Use Guideline for Good Clinical Practice. The protocol was approved by the Yale University Human Investigation Committee and the Yale–New Haven Hospital Radiation Safety Committee. SERT and NET occupancy were determined using the selective radiotracers [^11C]-DASB ([Meyer et al., 2004]; [Takano et al., 2006]; [Abanades et al., 2011]; [Nogami et al., 2013]) and [^11C]-MRB. Selection of the radiotracers and the dose of TD-9855 were flexible to minimize the number of PET scans.
Eligible subjects were enrolled and received either [^11C]-MRB and/or [^11C]-DASB. Each subject underwent up to 5 PET scans over a period of up to 8 days. Multiple dose levels of TD-9855 (up to 20mg) were explored. All randomized subjects received the NET tracer (single-tracer evaluation) and some subjects (n = 3) received both the NET and SERT tracers sequentially (dual-tracer evaluation) in the baseline and post-dose period. […] In the dual-tracer evaluation, subjects completed sequential [^11C]-DASB and [^11C]-MRB baseline scans with each tracer, sequential post-dose scans with each tracer at 7–10hr post-dose, and one follow-up scan with [^11C]-MRB on or between Days 3 and 7. […]
For both studies, binding potentials (BP ND) were estimated using a method based on a reference region input curve. […] The suitability of MRTM2 to estimate [^11C]-MRB BP ND values was evaluated in a previous study ([Hannestad et al., 2010]), in which it was shown that MRTM2 BP ND estimates are highly correlated with BP ND estimated with arterial blood sampling and the multilinear analysis 1 (y = 0.909 x + 0.078, r^2 = 0.821, where x represents the MA1 BP ND values and y represents the MRTM2 BP ND values). […]

In the case of `Fc1cc(F)c(OCc2ccccc2C2CCNCC2)c(F)c1` [TD-9855, 4-[2-(2,4,6-trifluorophenoxymethyl)phenyl]piperidine], the “Emax (% Occupancy), SERT” value (SERT [1]; rat spinal cord, oral 0.3-60mg/kg) is reported as 79.0 (53) % Occupancy, the EC50 (SERT [1]; rat spinal cord, plasma EC50) is reported as 158 nM and the “keo, SERT” value (SERT [1]; rat, equilibration rate constant plasma to effect compartment) is reported as 11.0 (86) hr^-1. The “average SERT occupancy” value (SERT [2]; 20mg single oral dose, Day 1, mean ± SD, n = 3, at plasma level 6.35ng/mL) was 25 (±8) %, the “Apparent SERT Occupancy Day 1” value (SERT [2]; 20 mg single oral dose, individual subjects, rApp ± SE, listed as TH-9855) was 15.5±2.6% and 29.1±2.2% and 30.5±3.1% and the “levels of SERT occupancy across subjects” value (SERT [2]; single dose of 20mg, n = 3) was 15–30%.
